Consider 13 molecules from DBAASP.

Among the test systems are Bacillus subtilis 168 HT; Escherichia coli MG1655; Bacillus subtilis; Escherichia coli; Listeria innocua; Micrococcus luteus A270; Candida albicans MDM8; Escherichia coli SBS 363; Micrococcus luteus; Staphylococcus aureus.
Test in all cases: ≥ marks a high value that may be exact or a test limit, other limits are often not marked, values filed in µg/mL are converted to µM
The test system of test [1] is Mycobacterium tuberculosis H37Rv.
Test [2] has as its system Escherichia coli ATCC 11219.
Test [3] deals with Klebsiella pneumoniae ATCC 10031.
In test [4] the test system is Pseudomonas aeruginosa ATCC 13388.
Test [5] has as its system Salmonella enterica subsp. enterica serovar Typhimurium ATCC 14028.
Test [6] concerns Staphylococcus aureus ATCC 6538.
Test [7] has as its system Bacillus subtilis ATCC 6633.
Test [8] has as its system Escherichia coli ATCC 25922.
Test [9] deals with Pseudomonas aeruginosa ATCC BAA-427.
Test [10] concerns Staphylococcus aureus ATCC 25923.
Test [11] has as its system Enterococcus faecalis ATCC 29212.
The test system of test [12] is Klebsiella pneumoniae ATCC 13883.
The subject of test [13] is Pseudomonas aeruginosa ATCC 27853.
Test [14] concerns Streptococcus pyogenes ATCC 19615.
Test [15] concerns Salmonella enterica subsp. enterica serovar Enteritidis.

Structures are written as SMILES. Converted amounts (≈) assume the structure as drawn. “And” between values parts separate entries of the source, which are not always exact repeats. Identical values can stand only once.

For the molecule `CC[C@H](C)[C@H](NC(=O)CN)C(=O)NCC(=O)N[C@@H](CCCCN)C(=O)N[C@@H](Cc1ccccc1)C(=O)N[C@@H](CC(C)C)C(=O)N[C@@H](CCCCN)C(=O)N[C@@H](CO)C(=O)N[C@@H](CCCCN)C(=O)NCC(=O)N[C@@H](CCCCN)C(=O)N[C@@H](Cc1ccccc1)C(=O)NCC(=O)N[C@@H](CCCCN)C(=O)N[C@@H](C)C(=O)O` [GIGKFLKSKGKFGKA], the MIC in [1] is not below 192 µM.
Turning to `CC[C@H](C)[C@H](NC(=O)CN)C(=O)N[C@@H](Cc1cnc[nH]1)C(=O)N[C@@H](CC(=O)O)C(=O)N[C@@H](C)C(=O)N[C@@H](CC(C)C)C(=O)N[C@@H](CCCCN)C(=O)N[C@@H](Cc1ccc(O)cc1)C(=O)NCC(=O)N[C@@H](CCCCN)C(=O)N1CCC[C@H]1C(=O)N[C@@H](CO)C(N)=O` [GIHDALKYGKPS], the MIC in [2] was found to be 20 µM (≈ 25.7 µg/mL); in [3] it was 20 µM (≈ 25.7 µg/mL); in test [4], 10 µM (≈ 12.8 µg/mL); in [5] it was 4 µM (≈ 5.14 µg/mL); in test [6], 20 µM (≈ 25.7 µg/mL).
In the case of `CC[C@H](C)[C@H](NC(=O)CN)C(=O)N[C@@H](Cc1cnc[nH]1)C(=O)N[C@@H](CC(=O)O)C(=O)N[C@H](C(=O)N[C@@H](CC(C)C)C(=O)N[C@@H](CCCCN)C(=O)N[C@@H](Cc1ccc(O)cc1)C(=O)NCC(=O)N[C@@H](CCCCN)C(=O)N[C@@H](C)C(=O)N[C@@H](CO)C(N)=O)[C@@H](C)CC` [GIHDILKYGKAS], the MIC in test [2] was not below 50 µM; in test [3], 30 µM (≈ 39 µg/mL); in [4], 30 µM (≈ 39 µg/mL); in test [5], 10 µM (≈ 13 µg/mL); in [6], 10 µM (≈ 13 µg/mL).
For `CC[C@H](C)[C@H](NC(=O)CN)C(=O)N[C@@H](Cc1cnc[nH]1)C(=O)N[C@@H](CC(=O)O)C(=O)N[C@H](C(=O)N[C@@H](CC(C)C)C(=O)N[C@@H](CCCCN)C(=O)N[C@@H](Cc1ccc(O)cc1)C(=O)NCC(=O)N[C@@H](CCCCN)C(=O)N[C@@H](CCCCN)C(=O)N[C@@H](CO)C(N)=O)[C@@H](C)CC` [GIHDILKYGKKS], the MIC stood at 10 µM (≈ 13.6 µg/mL) in test [2]; 20 µM (≈ 27.2 µg/mL) in [3]; 20 µM (≈ 27.2 µg/mL) in test [4]; 20 µM (≈ 27.2 µg/mL) in test [5]; 30 µM (≈ 40.7 µg/mL) in test [6].
In the case of `CC[C@H](C)[C@H](NC(=O)[C@@H](NC(=O)[C@H](CCCCN)NC(=O)[C@H](CCCCN)NC(=O)[C@H](Cc1ccccc1)NC(=O)[C@@H](N)CCCCN)C(C)C)C(=O)N[C@@H](Cc1c[nH]c2ccccc12)C(=O)N[C@@H](CCCCN)C(=O)N[C@@H](CO)C(=O)N[C@@H](Cc1ccccc1)C(=O)N[C@@H](CC(C)C)C(=O)O` [KFKKVIWKSFL], the values for the MIC against Bacillus subtilis 168 HT and in the test on Escherichia coli MG1655 were not below 45 µM and not below 90 µM, respectively.
The like results for `CC(C)C[C@H](NC(=O)[C@H](CC(C)C)NC(=O)[C@H](CCCN=C(N)N)NC(=O)[C@H](CCCN=C(N)N)NC(=O)[C@H](CCCCN)NC(=O)[C@H](C)NC(=O)[C@H](CCCCN)NC(=O)[C@@H](N)CCCCN)C(=O)N[C@@H](CCCCN)C(=O)N[C@@H](CCCCN)C(=O)O` [KKAKRRLLKK] were, in that order, not below 101 µM and not below 101 µM.
For the molecule `CC(C)C[C@H](NC(=O)[C@H](CC(=O)O)NC(=O)[C@H](CC(C)C)NC(=O)[C@H](CCCCN)NC(=O)[C@H](CC(C)C)NC(=O)[C@H](CC(=O)O)NC(=O)[C@H](CC(C)C)NC(=O)[C@H](CCCCN)NC(=O)[C@H](CC(C)C)NC(=O)[C@H](CC(=O)O)NC(=O)[C@H](CC(C)C)NC(=O)[C@@H](N)CCCCN)C(=O)O` [KLDLKLDLKLDL], the MIC in [7] is not below 100 µM; in test [8], more than 100 µM; in test [9], not below 100 µM; in test [10] it was more than 100 µM.
As for `CC(C)C[C@H](NC(=O)[C@H](CC(C)C)NC(=O)[C@H](CCCCN)NC(=O)[C@H](CC(C)C)NC(=O)[C@H](CCCCN)NC(=O)[C@H](CC(C)C)NC(=O)[C@H](CCCCN)NC(=O)[C@H](CC(C)C)NC(=O)[C@H](CC(C)C)NC(=O)[C@H](CC(C)C)NC(=O)[C@@H](N)CCCCN)C(=O)N[C@@H](CCCCN)C(N)=O` [KLLLKLKLKLLK], the MIC is not below 50 µM in the test with Bacillus subtilis; 100 µM (≈ 145 µg/mL) in test [11]; 50 µM (≈ 72.5 µg/mL) in the test with Escherichia coli; not below 200 µM in [12]; 100 µM (≈ 145 µg/mL) in test [13]; more than 200 µM in test [5]. In addition, the MIC in [10] is 50 µM (≈ 72.5 µg/mL); in test [14], not below 50 µM.
On to `CC[C@H](C)[C@H](NC(=O)CNC(=O)[C@@H](NC(=O)[C@H](CCCCN)NC(=O)[C@@H](NC(=O)CNC(=O)[C@H](CC(C)C)NC(=O)[C@H](Cc1c[nH]c2ccccc12)NC(=O)[C@H](CCCN=C(N)N)NC(=O)[C@@H](N)CC(C)C)[C@@H](C)O)C(C)C)C(=O)N[C@@H](CC(C)C)C(=O)N[C@@H](CCCCN)C(=O)O` [LRWLGTKVGILK], for which the MIC against Bacillus subtilis 168 HT and in the test on Escherichia coli MG1655 was not below 92 µM each time.
`CC(C)C[C@H](N)C(=O)N[C@@H](CO)C(=O)N[C@@H](Cc1ccccc1)C(=O)N1CCC[C@H]1C(=O)N[C@H](C(=O)N[C@H](C(=O)N[C@@H](CCCCN)C(=O)N[C@H](C(=O)N[C@@H](Cc1ccc(O)cc1)C(=O)N[C@@H](Cc1ccccc1)C(=O)N1CCC[C@H]1C(=O)N[C@@H](Cc1cnc[nH]1)C(=O)N[C@@H](Cc1ccccc1)C(=O)O)[C@@H](C)O)[C@@H](C)O)[C@@H](C)O` [LSFPTTKTYFPHF]: the MIC in the test with Escherichia coli was determined as 9 µM (≈ 14.3 µg/mL); with Listeria innocua, 1 µM (≈ 1.59 µg/mL); in the test on Micrococcus luteus A270, 5 µM (≈ 7.93 µg/mL); in test [15] it was 5 µM (≈ 7.93 µg/mL).
As for `CC[C@H](C)[C@H](NC(=O)[C@H](CC(C)C)NC(=O)[C@H](CO)NC(=O)[C@H](CC(C)C)NC(=O)[C@H](CC(C)C)NC(=O)[C@@H](N)CCCN=C(N)N)C(=O)N[C@@H](CCCN=C(N)N)C(=O)N[C@@H](CCCCN)C(=O)N[C@@H](CC(C)C)C(=O)N[C@H](C(=O)N[C@H](C(N)=O)[C@@H](C)O)[C@@H](C)CC` [RLLSLIRKLIT], the results for the MIC in the test on Candida albicans MDM8, with Escherichia coli SBS 363 and in the test on Micrococcus luteus A270 were 0.78 µM (≈ 1.03 µg/mL), 1.56 µM (≈ 2.07 µg/mL) and 0.5 µM (≈ 0.662 µg/mL), respectively.
On to `C[C@@H](O)[C@H](N)C(=O)N[C@@H](CO)C(=O)N[C@@H](CCCCN)C(=O)N[C@@H](Cc1ccc(O)cc1)C(=O)N[C@@H](CCCN=C(N)N)C(=O)O` [TSKYR], for which the MIC is 9 µM (≈ 5.88 µg/mL) in the test with Escherichia coli; 1 µM (≈ 0.654 µg/mL) in the test on Listeria innocua; 9 µM (≈ 5.88 µg/mL) in the test with Micrococcus luteus A270; 9 µM (≈ 5.88 µg/mL) with Micrococcus luteus; 5 µM and 4.6 µM in test [15]; 1 µM (≈ 0.654 µg/mL) in the test on Staphylococcus aureus.
In the case of `CC[C@H](C)[C@H](NC(=O)CNC(=O)[C@@H](N)Cc1c[nH]c2ccccc12)C(=O)N[C@@H](Cc1cnc[nH]1)C(=O)N[C@@H](CCCN=C(N)N)C(=O)N[C@H](C(=O)N[C@@H](CC(C)C)C(=O)N[C@@H](CCCCN)C(=O)N[C@@H](Cc1ccc(O)cc1)C(=O)NCC(=O)N[C@@H](CCCCN)C(=O)N1CCC[C@H]1C(=O)N[C@@H](CO)C(=O)O)[C@@H](C)CC` [WGIHRILKYGKPS], the MIC in test [2] is 8 µM (≈ 12.4 µg/mL); in [3] it was 12 µM (≈ 18.7 µg/mL); in test [4], 12 µM (≈ 18.7 µg/mL); in test [5], 10 µM (≈ 15.5 µg/mL); in test [6] it was 8 µM (≈ 12.4 µg/mL).

One may read the MIC as the lowest concentration found to suppress growth. Lower therefore signals inhibition by little substance.
